The text below walks through data of patent US20160025704A1, “METHODS FOR IDENTIFYING NEUROPROTECTIVE PKC ACTIVATORS” (priority 2013, published 2016).

Data set [1] can be described thus: Bryostatin levels in plasma and brain after intravenous injection. The format is in vivo, mice. Here is the method:
Measurements of bryostatin were analyzed at different time points subsequent to administration of a high dose of bryostatin (114 μg/m2). […] The plasma/brain ratio can be greater than 30.
Protocol: Male C57BL/6M mice (15-20 g, Charles River) were acclimatized for 7-8 days in a non-enriched environment, three mice per cage. Bryostatin (Tocris) was dissolved in DMSO, diluted into 0.9% saline, and injected into the tail vein at doses of 10 and 15 μg/m2. After a fixed period, the mice were anesthetized with CO2 and the brain was frozen on dry ice. Blood was mixed with 0.2 ml 1 mM EDTA in PBS, centrifuged at 100 g for 30 min, and plasma was frozen on dry ice. In some experiments, blood lymphocyte fractions were collected using Ficoll-Paque Plus reagent using the procedure recommended by the manufacturer. All animal procedures were approved by the institutional IACUC.
Bryostatin was injected into the tail vein of C57BL/6N mice at 10 and 15 μg/m2 (equivalent to 3.50 and 5.25 μg/kg), and brain PKC-ε concentration was measured using Western blots. Brain PKC-ε activation was biphasic, peaking at 0.5 h and slowly declined toward resting levels, even though bryostatin levels continued to increase. This is consistent with the short-lived activation of PKC established previously. […] The bryostatin concentration at 0.5 h was 0.029 nM.

A short description of data set [2]: Internal toxicity study: Clinical Chemistry Panel & Hematology Panel. In kind it is in vivo. Here is the method: Internal tests measuring various biological markers were performed 24 hours after administering a PKC activator (bryostatin, cyclopropanated arachidonic acid, DCPLA, and DHACP6) at 10× the therapeutic dose. The results are shown below in Tables 5-7.

For data set [3] the following is noted: clinical trials, Varterasian et al. 2000; cited from earlier work.
A further data set deals with HL-60 cells. The conditions noted are these: Kraft et al. 1986; cited from earlier work.
A further data set concerns human neprilysin. Description: Membrane localization of neprilysin in SH+hNEP cells (biotinylation, Western blot). As to conditions: 1 nM. The format is cell-based. Here is the method: Protocols: SHSYSY cells overexpressing human neprilysin (SH+hNEP cells) were incubated with 1 μM oligomeric Aβ(1-42) for 4 hours in the absence or presence of bryostatin (Bryo, 1 nM). Some cells were pre-treated with Ro 32-0432 (Ro, 2 μM, a PKC inhibitor) for 30 min and then treated with Bryo. Cell surface-located proteins were then biotinylated and extracted using streptavidin beads, followed by immunoprecipitation using a neprilysin antibody Immunoprecipitates were subjected to Western blot analysis using neprilysin antibody (Mean+SEM of three independent experiments, **P<0.01, Aβ compared with untreated; #P<0.01, Ro+Bryo compared with Bryo). Results are shown below in FIG. 17.
Protocol: After SH+hNEP cells were untreated or treated with bryostatin (Bryo, 1 nM), or pre-treated with PKC inhibitor Ro 32-0432 (Ro, 2 μM) for 30 min and then treated with Bryo for 1 hour, cell surface located proteins were biotinylated and pulled down using streptavidin beads, followed by immunoprecipitation using a neprilysin antibody. […] Cells were then lysed and neprilysin activity was measured. […] Further incubation with leucine aminopeptidases released free 4-methoxy-2-naphthylamide that was measured fluorometrically at an emission of 425 nm. […]

The next data set concerns TA 1535 Cells. Description: AMES test, TA1535 cells. In kind it is cell-based. As to conditions: TA1535 Cells, plate count. The source says: The AMES test is a rapid screening of the mutagenic potential of chemical compounds. […] Between 50% and 70% of all known carcinogens test positive in the AMES test.
Another data set has as its system 5XFAD mice. Description: Synaptic loss in hippocampal CA1 area of 5XFAD mice. In kind it is in vivo. Here is the method: Protocol: DCPLA (20 mg/m^2, tail vein injection) was administered to 2-month old 5XFAD mice twice a week. At five months old, hippocampal slices from the brains of the mice were processed for immunohistochemistry and confocal microscopy analysis. Results are shown for analysis of spinophilin density (A, B), synaptophysin density (A, D) not caused by axonal bouton (synaptophysin granules) (C) and neuronal loss (E, F). […] Non-treated groups (wild-type and transgenic (Tg) mice) received the same vehicle volumes, mechanism of delivery, and frequency of administration as the treated groups.

The mark [4] stands for this setting: i.v. 150 μg/m^2 = 10 × Therapeutic Dose, 24 hours, normalized to Control.
Where [5] appears, read: i.v. 150 μg/m^2 = 10 × Therapeutic Dose, 24 hours, normalized to Normal.

On to `CCC/C=C/C=C/C(=O)O[C@H]1/C(=C/C(=O)OC)C[C@H]2C[C@H]([C@@H](C)O)OC(=O)C[C@H](O)C[C@@H]3C[C@H](OC(C)=O)C(C)(C)[C@](O)(C[C@@H]4C/C(=C/C(=O)OC)C[C@H](/C=C/C(C)(C)[C@]1(O)O2)O4)O3` [Bryostatin, bryostatin-1], for which the “brain bryostatin relative to PKC downregulation” value in data set [1] (FIG. 2, brain versus plasma) is “below PKC downregulation”. Moreover, the plasma/brain ratio entry in data set [1] (single intravenous injection, 114 μg/m2, mice) is recorded as “greater than 30”. Besides, the “half-life in the brain as compared to plasma” value in data set [1] (single intravenous injection, high dose 114 μg/m2, mice) is given as “extremely long half-life in the brain as compared to in plasma”. The “bryostatin concentration at 0.5 h” value in data set [1] (tail vein 10 and 15 μg/m2, C57BL/6N mice, 0.5 h) amounted to 0.029 nM. Moreover, in data set [2] (24 hours after administering 10× the therapeutic dose, summary of Tables 5-7), the “levels of biological markers as compared to normal levels (toxicity)” value is “did not demonstrate statistically significant differences in levels of biological markers as compared to normal levels”. Further, in data set [2] (setting [4]), the “ALB (Albumin)” value came to 91.1 ± 0.8, the “ALP (Alkaline phosphatase)” value was determined as 62.8 ± 10.0, the “ALT (Alanine aminotransferase)” value stood at 63.6 ± 3.6 and the “AST (Aspartate aminotransferase)” value was determined as 75.2 ± 11.3. Besides, in data set [2] (setting [4]), the “BUN (Blood urea nitrogen)” value is reported as 117.0 ± 4.5, the “CA (Calcium)” value was 89.2 ± 6.1, the “CO2-LC (Bicarbonate)” value was 91.1 ± 4.2 and the “CREAT (Creatinine)” value turned out to be 80.7 ± 3.5. Further, in data set [2] (setting [4]), the “GLU (Glucose)” value is reported as 77.6 ± 8.4, the “K (Potassium)” value is reported as 101.0 ± 3.6, the “NA (Sodium)” value was 94.1 ± 1.9 and the “TBILI (Total bilirubin)” value was determined as 78.2 ± 13.0. The “TPROT (Total protein)” value in data set [2] (setting [4]) stood at 91.3 ± 2.8. In addition, in data set [2] (setting [5]), the “BA (Basophils)” value is given as 300.0 ± 200.0, the “EO (Eosinophils)” value is 375.0 ± 250.0, the “HCT (Hematocrit)” value was 97.3 ± 21.9 and the “Hb (Hemoglobin)” value was 83.4 ± 19.5. Also, in data set [2] (setting [5]), the “LY (Lymphocytes)” value is given as 134.4 ± 55.1, the “MCH (Mean corpuscular hemoglobin)” value was 86.7 ± 4.9, the “MCHC (Mean corpuscular hemoglobin concentration)” value is reported as 85.1 ± 2.8 and the “MCV (Mean corpuscular volume)” value was 101.8 ± 2.8. Moreover, in data set [2] (setting [5]), the “MO (Monocytes)” value was 133.3 ± 50.0, the “MPV (Mean platelet volume)” value came out at 96.2 ± 2.4, the “NE (Neutrophils)” value amounted to 144.8 ± 55.1 and the “PLT (Platelet count)” value amounted to 109.4 ± 43.9. For the same compound, in data set [2] (setting [5]), the “RBC (Red Blood Cells)” value came out at 95.3 ± 20.0, the “RDW (Red cell distribution width)” value came out at 106.8 ± 6.2 and the “WBC (White blood cells)” value is 142.3 ± 57.3. Besides, the tumor growth promotion result in data set [3] was “does not promote tumor growth”. The “phorbol ester-induced differentiation of HL-60 cells” value in the data set with HL-60 cells is “block phorbol ester-induced differentiation of HL-60 cells”. Further, the “membrane localization of neprilysin protein inhibited by Aβ” value with human neprilysin (1 μM oligomeric Aβ(1-42), 4 hours) is “recovers membrane localization of neprilysin protein inhibited by Aβ”. For the same compound, in the data set with human neprilysin (1 hour, without Aβ), the neprilysin membrane localization result is “enhances neprilysin membrane localization”.

In the case of `CCCCCC1CC1CC1CC1CCCCCCCC(=O)O` (centres unmarked) [DCPLA, 8-[2-(2-pentylcyclopropyl)methyl]-cyclopropaneoctanoic acid], the Negative in the data set with TA 1535 Cells (0.125 mM) is given as 95; with TA 1535 Cells (0.25 mM), 93; in the data set on TA 1535 Cells (0.5 mM), 94; in the data set with TA 1535 Cells (1 mM) it was 93. Moreover, the Positive in the data set with TA 1535 Cells (0.125 mM) came to 1; with TA 1535 Cells (0.25 mM), 3; in the data set with TA 1535 Cells (0.5 mM), 2; with TA 1535 Cells (1 mM) it was 3. Besides, the “mushroom spine shape dendritic spines and synapses” value with 5XFAD mice (20 mg/m^2 tail vein twice a week from 2 months old, analysis at five months) was “protected the decrease in mushroom spine shape dendritic spines and synapses”. Further, the “synaptic loss in hippocampal CA1 area” value in the data set with 5XFAD mice (5XFAD mice at 5 months old (FIG. 20)) is “prevents synaptic loss”.
